Where two headings read alike, the source gives them in different places.
Key:
Format in all cases: cell-based, human
SMN2 mRNA = experiment: RT-qPCR splicing assay panel, SMN2 canonical junction (CJ) mRNA; details: Homo sapiens, canonical junction (CJ) mRNA, RT-qPCR panel, Table 4A; read-out: SMN2, decrease in CJ mRNA levels, IC50
Outline: (§1)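 Junction-specific RT-qPCR read the canonical exon-exon junction and the compound-induced alternative-exon junction, normalized to GAPDH, GUSB or PPIA and then to DMSO (2^(-ΔΔCt)). Input was lysate from A673 or K562 cells exposed for 24 h to compound up to 10 uM.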

MYB mRNA = experiment: RT-qPCR splicing assay, MYB canonical (CJ) and alternative (AJ) junction mRNA; details: Homo sapiens; for AC50: read-out: MYB AJ (AC50, increase in AJ mRNA)
Outline: as §1

Target C mRNA = experiment: RT-qPCR splicing assay panel, Target C canonical junction (CJ) mRNA; details: Homo sapiens, canonical junction (CJ) mRNA, RT-qPCR panel, Table 4A; read-out: Target C, decrease in CJ mRNA levels, IC50
Outline: as §1

HTT mRNA = experiment: RT-qPCR splicing assay, HTT canonical (CJ) and alternative (AJ) junction mRNA; details: Homo sapiens; for AC50: read-out: HTT AJ (AC50, increase in AJ mRNA)
Outline: as §1

[1] = 24 h, Table 3A, A673 or K562 cells, 24 h treatment
[2] = 24 h, Table 3A, A673 or K562 cells, 24 h treatment, read-out: MYB CJ (IC50, decrease in CJ mRNA)
[3] = canonical junction (CJ) mRNA, RT-qPCR panel, Table 4A, read-out: MYB, decrease in CJ mRNA levels, IC50
[4] = 24 h, Table 3A, A673 or K562 cells, 24 h treatment, read-out: HTT CJ (IC50, decrease in CJ mRNA)
[5] = canonical junction (CJ) mRNA, RT-qPCR panel, Table 4A, read-out: HTT, decrease in CJ mRNA levels, IC50

Structure (SMILES): Cc1ncc(-c2ccc(-c3ccc(N4CC[C@@H](N(C)C5CCC5)C4)nn3)c(O)c2)s1 [Compound 270, 2-{6-[(3R)-3-[cyclobutyl(methyl)amino]pyrrolidin-1-yl]pyridazin-3-yl}-5-(2-methyl-1,3-thiazol-5-yl) phenol]
- IC50 (SMN2 mRNA): 0.1 to 1 µM
- AC50 (MYB mRNA; [1]): > 10 µM
- IC50 (MYB mRNA; [2]): > 10 µM
- IC50 (MYB mRNA; [3]): > 10 µM
- IC50 (Target C mRNA): > 10 µM
- AC50 (HTT mRNA; [1]): > 10 µM
- IC50 (HTT mRNA; [4]): > 10 µM
- IC50 (HTT mRNA; [5]): > 10 µM

Structure (SMILES): CC(C)(C)N[C@H]1CCN(c2ccc(-c3ccc(-c4cn[nH]c4)cc3O)nn2)C1 [Compound 261]
- IC50 (SMN2 mRNA): < 0.1 µM
- AC50 (MYB mRNA; [1]): 0.1 to 1 µM
- IC50 (MYB mRNA; [2]): 0.1 to 1 µM
- IC50 (MYB mRNA; [3]): 0.1 to 1 µM
- IC50 (Target C mRNA): < 0.1 µM
- AC50 (HTT mRNA; [1]): < 0.1 µM
- IC50 (HTT mRNA; [4]): < 0.1 µM
- IC50 (HTT mRNA; [5]): < 0.1 µM

Structure (SMILES): CCc1cc(-c2ccc(-c3ccc(N4CC[C@H](NC5CCC5)C4)nn3)c(O)c2)cnn1 [Compound 278]
- IC50 (SMN2 mRNA): 1 to 10 µM
- AC50 (MYB mRNA; [1]): > 10 µM
- IC50 (MYB mRNA; [2]): 1 to 10 µM
- IC50 (MYB mRNA; [3]): 1 to 10 µM
- IC50 (Target C mRNA): > 10 µM
- AC50 (HTT mRNA; [1]): > 10 µM
- IC50 (HTT mRNA; [4]): 1 to 10 µM
- IC50 (HTT mRNA; [5]): 1 to 10 µM

Structure (SMILES): COc1cc(-c2ccc(-c3ccc(N4CC[C@@H](N[C@H]5C[C@H](F)C5)C4)nn3)c(O)c2)ncn1 [Compound 427]
- IC50 (SMN2 mRNA): 0.1 to 1 µM
- AC50 (MYB mRNA; [1]): 1 to 10 µM
- IC50 (MYB mRNA; [2]): 1 to 10 µM
- IC50 (MYB mRNA; [3]): 1 to 10 µM
- IC50 (Target C mRNA): 1 to 10 µM
- AC50 (HTT mRNA; [1]): 0.1 to 1 µM
- IC50 (HTT mRNA; [4]): 0.1 to 1 µM
- IC50 (HTT mRNA; [5]): 0.1 to 1 µM

Structure (SMILES): Cc1ncc(-c2ccc(-c3ccc(N4CC[C@@H](NCC5CC5)C4)nn3)c(O)c2)s1 [Compound 379, 2-{6-[(3R)-3-[(cyclopropylmethyl)amino]pyrrolidin-1-yl]pyridazin-3-yl}-5-(2-methyl-1,3-thiazol-5-yl)phenol]
- IC50 (SMN2 mRNA): < 0.1 µM
- AC50 (MYB mRNA; [1]): < 0.1 µM
- IC50 (MYB mRNA; [2]): < 0.1 µM
- IC50 (MYB mRNA; [3]): < 0.1 µM
- IC50 (Target C mRNA): < 0.1 µM
- AC50 (HTT mRNA; [1]): < 0.1 µM
- IC50 (HTT mRNA; [4]): < 0.1 µM
- IC50 (HTT mRNA; [5]): < 0.1 µM

Structure (SMILES): Cc1nnc(-c2ccc(-c3ccc(N4CC[C@@H](NCC5CC5)C4)nn3)c(O)c2)s1 [Compound 415]
- IC50 (SMN2 mRNA): < 0.1 µM
- AC50 (MYB mRNA; [1]): 0.1 to 1 µM
- IC50 (MYB mRNA; [2]): 0.1 to 1 µM
- IC50 (MYB mRNA; [3]): 0.1 to 1 µM
- IC50 (Target C mRNA): 0.1 to 1 µM
- AC50 (HTT mRNA; [1]): < 0.1 µM
- IC50 (HTT mRNA; [4]): < 0.1 µM
- IC50 (HTT mRNA; [5]): < 0.1 µM

Structure (SMILES): Oc1cc(-c2cnnc(C3CC3)c2)ccc1-c1ccc(N2CC[C@@H](NC3CCC3)C2)nn1 [Compound 279, 2-{6-[(3R)-3-(cyclobutylamino)pyrrolidin-1-yl]pyridazin-3-yl}-5-(6-cyclopropylpyridazin-4-yl)phenol]
- IC50 (SMN2 mRNA): 0.1 to 1 µM
- AC50 (MYB mRNA; [1]): > 10 µM
- IC50 (MYB mRNA; [2]): > 10 µM
- IC50 (MYB mRNA; [3]): > 10 µM
- IC50 (Target C mRNA): > 10 µM
- AC50 (HTT mRNA; [1]): > 10 µM
- IC50 (HTT mRNA; [4]): 1 to 10 µM
- IC50 (HTT mRNA; [5]): 1 to 10 µM

Structure (SMILES): COc1cncc(-c2cc(O)c(-c3ccc(N4CC[C@@H](NC5CCC5)C4)nn3)cc2F)c1 [Compound 225, 2-{6-[(3R)-3-(cyclobutylamino)pyrrolidin-1-yl]pyridazin-3-yl}-4-fluoro-5-(5-methoxypyridin-3-yl)phenol]
- IC50 (SMN2 mRNA): > 10 µM
- AC50 (MYB mRNA; [1]): > 10 µM
- IC50 (MYB mRNA; [2]): > 10 µM
- IC50 (MYB mRNA; [3]): > 10 µM
- IC50 (Target C mRNA): > 10 µM
- AC50 (HTT mRNA; [1]): > 10 µM
- IC50 (HTT mRNA; [4]): > 10 µM
- IC50 (HTT mRNA; [5]): > 10 µM

Structure (SMILES): COc1cc(-c2ccc(-c3cc(C#N)c(OC4CC(C)(C)NC(C)(C)C4)nn3)c(O)c2)cnn1 [Compound 424]
- IC50 (SMN2 mRNA): 0.1 to 1 µM
- AC50 (MYB mRNA; [1]): 1 to 10 µM
- IC50 (MYB mRNA; [2]): 1 to 10 µM
- IC50 (MYB mRNA; [3]): 1 to 10 µM
- IC50 (Target C mRNA): 1 to 10 µM
- AC50 (HTT mRNA; [1]): 0.1 to 1 µM
- IC50 (HTT mRNA; [4]): 0.1 to 1 µM
- IC50 (HTT mRNA; [5]): 0.1 to 1 µM

Structure (SMILES): COc1cc(-c2ccc(-c3ccc(N4CC[C@@](C)(NCC5CC5)C4)nn3)c(O)c2)ncn1 [Compound 375, 2-{6-[(3R)-3-[(cyclopropylmethyl)amino]-3-methylpyrrolidin-1-yl]pyridazin-3-yl}-5-(6-methoxypyrimidin-4-yl)phenol]
- IC50 (SMN2 mRNA): < 0.1 µM
- AC50 (MYB mRNA; [1]): 1 to 10 µM
- IC50 (MYB mRNA; [2]): 0.1 to 1 µM
- IC50 (MYB mRNA; [3]): 0.1 to 1 µM
- IC50 (Target C mRNA): 0.1 to 1 µM
- AC50 (HTT mRNA; [1]): 0.1 to 1 µM
- IC50 (HTT mRNA; [4]): < 0.1 µM
- IC50 (HTT mRNA; [5]): < 0.1 µM

Source: US20250333397A1 (REMIX THERAPEUTICS INC., priority 2021, published 2025)
